# Test results: the kinase profiling compilation of Christmann-Franck et al. (2016)
# Experiments:
# Assay in all cases: radiometric filter-binding kinase assay, Kinase HotSpot
# Details in all cases: compound 0.5 µM; ATP 10 µM
# CLK3 (human) = CLK3 (human) (UniProt P49761)
# ITK (human) = ITK (human) (UniProt Q08881)
# EGFR (human) = EGFR (human) (UniProt P00533)
# ROS1 (human) = ROS1 (human) (UniProt P08922)
# CAMKK1 (human) = CAMKK1 (human) (UniProt Q8N5S9)
# BRSK2 (human) = BRSK2 (human) (UniProt Q8IWQ3)
# BRSK1 (human) = BRSK1 (human) (UniProt Q8TDC3)
# ERBB4 (human) = ERBB4 (human) (UniProt Q15303)
# ZAP70 (human) = ZAP70 (human) (UniProt P43403)
# CSF1R (human) = CSF1R (human) (UniProt P07333)
# MAP3K7 TAB1 (human) = MAP3K7 TAB1 (human) (UniProt O43318+Q15750)
# CSNK1E (human) = CSNK1E (human) (UniProt P49674)
# CHEK2 (human) = CHEK2 (human) (UniProt O96017)
# STK4 (human) = STK4 (human) (UniProt Q13043)
# CDK9 CCNK (human) = CDK9 CCNK (human) (UniProt O75909+P50750)
# KIT (human) = KIT (human) (UniProt P10721)
# MARK3 (human) = MARK3 (human) (UniProt P27448)
# CDK2 CCNA2 (human) = CDK2 CCNA2 (human) (UniProt P24941+P20248)
# MARK4 (human) = MARK4 (human) (UniProt Q96L34)
# ABL1 (human) = ABL1 (human) (UniProt P00519)
# MAP3K2 (human) = MAP3K2 (human) (UniProt Q9Y2U5)
# MST1R (human) = MST1R (human) (UniProt Q04912)
# TGFBR1 (human) = TGFBR1 (human) (UniProt P36897)
# CDK4 CCND3 (human) = CDK4 CCND3 (human) (UniProt P30281+P11802)
# CSK (human) = CSK (human) (UniProt P41240)
# TSSK1B (human) = TSSK1B (human) (UniProt Q9BXA7)
# GSG2 (human) = GSG2 (human) (UniProt Q8TF76)
# STK39 (human) = STK39 (human) (UniProt Q9UEW8)
# EPHB3 (human) = EPHB3 (human) (UniProt P54753)
# MAP4K2 (human) = MAP4K2 (human) (UniProt Q12851)
# PIM3 (human) = PIM3 (human) (UniProt Q86V86)
# TTK (human) = TTK (human) (UniProt P33981)
# MAPK1 (human) = MAPK1 (human) (UniProt P28482)
# RAF1 (human) = RAF1 (human) (UniProt P04049)
# PTK2B (human) = PTK2B (human) (UniProt Q14289)
# TYRO3 (human) = TYRO3 (human) (UniProt Q06418)
# PRKD3 (human) = PRKD3 (human) (UniProt O94806)
# CSNK1D (human) = CSNK1D (human) (UniProt P48730)
# ROCK2 (human) = ROCK2 (human) (UniProt O75116)
# DCLK2 (human) = DCLK2 (human) (UniProt Q8N568)
# ACVRL1 (human) = ACVRL1 (human) (UniProt P37023)
# CSNK2A2 (human) = CSNK2A2 (human) (UniProt P19784)
# CSNK1E (human), sequence (P49674 whole entry, looked up): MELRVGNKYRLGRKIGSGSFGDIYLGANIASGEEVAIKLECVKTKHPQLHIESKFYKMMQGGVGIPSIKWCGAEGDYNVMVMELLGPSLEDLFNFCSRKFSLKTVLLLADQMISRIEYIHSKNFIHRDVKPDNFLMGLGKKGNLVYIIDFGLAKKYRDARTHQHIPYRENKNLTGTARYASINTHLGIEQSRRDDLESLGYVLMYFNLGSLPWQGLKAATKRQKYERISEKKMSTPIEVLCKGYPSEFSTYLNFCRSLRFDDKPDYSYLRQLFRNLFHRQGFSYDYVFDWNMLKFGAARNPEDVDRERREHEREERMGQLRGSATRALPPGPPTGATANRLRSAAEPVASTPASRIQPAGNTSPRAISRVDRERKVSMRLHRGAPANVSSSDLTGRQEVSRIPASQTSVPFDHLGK
# MAP3K7 TAB1 (human), sequence (O43318 whole entry, looked up): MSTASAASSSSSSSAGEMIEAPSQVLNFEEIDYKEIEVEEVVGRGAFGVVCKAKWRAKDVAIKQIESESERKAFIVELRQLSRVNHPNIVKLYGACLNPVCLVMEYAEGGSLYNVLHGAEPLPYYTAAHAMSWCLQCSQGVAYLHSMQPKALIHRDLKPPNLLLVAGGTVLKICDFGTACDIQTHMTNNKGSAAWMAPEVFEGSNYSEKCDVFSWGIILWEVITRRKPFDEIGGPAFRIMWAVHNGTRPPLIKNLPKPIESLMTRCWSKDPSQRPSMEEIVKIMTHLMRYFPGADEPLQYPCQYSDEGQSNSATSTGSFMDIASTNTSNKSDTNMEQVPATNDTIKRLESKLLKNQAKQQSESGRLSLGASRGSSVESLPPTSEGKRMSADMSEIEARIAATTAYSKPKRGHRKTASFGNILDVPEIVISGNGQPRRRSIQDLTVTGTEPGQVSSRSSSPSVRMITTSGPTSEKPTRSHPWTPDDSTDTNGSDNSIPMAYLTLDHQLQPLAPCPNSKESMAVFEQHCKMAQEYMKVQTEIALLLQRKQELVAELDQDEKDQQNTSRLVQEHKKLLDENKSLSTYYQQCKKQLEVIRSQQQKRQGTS
# MAP3K7 TAB1 (human), sequence (Q15750 whole entry, looked up): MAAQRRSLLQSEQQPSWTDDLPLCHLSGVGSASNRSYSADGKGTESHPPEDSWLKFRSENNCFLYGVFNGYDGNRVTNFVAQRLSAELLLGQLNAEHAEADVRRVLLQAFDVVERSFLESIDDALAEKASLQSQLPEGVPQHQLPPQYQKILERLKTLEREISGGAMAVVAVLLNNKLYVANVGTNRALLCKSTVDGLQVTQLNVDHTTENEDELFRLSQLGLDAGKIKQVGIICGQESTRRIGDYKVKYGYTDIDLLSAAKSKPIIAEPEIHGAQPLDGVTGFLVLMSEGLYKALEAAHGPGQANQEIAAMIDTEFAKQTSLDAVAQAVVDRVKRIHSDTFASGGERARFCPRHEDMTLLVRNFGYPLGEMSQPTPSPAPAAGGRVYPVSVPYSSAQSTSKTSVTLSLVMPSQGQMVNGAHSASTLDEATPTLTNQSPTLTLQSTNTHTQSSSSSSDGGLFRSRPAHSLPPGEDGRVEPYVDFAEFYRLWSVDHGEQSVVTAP
# DCLK2 (human), sequence (Q8N568 whole entry, looked up): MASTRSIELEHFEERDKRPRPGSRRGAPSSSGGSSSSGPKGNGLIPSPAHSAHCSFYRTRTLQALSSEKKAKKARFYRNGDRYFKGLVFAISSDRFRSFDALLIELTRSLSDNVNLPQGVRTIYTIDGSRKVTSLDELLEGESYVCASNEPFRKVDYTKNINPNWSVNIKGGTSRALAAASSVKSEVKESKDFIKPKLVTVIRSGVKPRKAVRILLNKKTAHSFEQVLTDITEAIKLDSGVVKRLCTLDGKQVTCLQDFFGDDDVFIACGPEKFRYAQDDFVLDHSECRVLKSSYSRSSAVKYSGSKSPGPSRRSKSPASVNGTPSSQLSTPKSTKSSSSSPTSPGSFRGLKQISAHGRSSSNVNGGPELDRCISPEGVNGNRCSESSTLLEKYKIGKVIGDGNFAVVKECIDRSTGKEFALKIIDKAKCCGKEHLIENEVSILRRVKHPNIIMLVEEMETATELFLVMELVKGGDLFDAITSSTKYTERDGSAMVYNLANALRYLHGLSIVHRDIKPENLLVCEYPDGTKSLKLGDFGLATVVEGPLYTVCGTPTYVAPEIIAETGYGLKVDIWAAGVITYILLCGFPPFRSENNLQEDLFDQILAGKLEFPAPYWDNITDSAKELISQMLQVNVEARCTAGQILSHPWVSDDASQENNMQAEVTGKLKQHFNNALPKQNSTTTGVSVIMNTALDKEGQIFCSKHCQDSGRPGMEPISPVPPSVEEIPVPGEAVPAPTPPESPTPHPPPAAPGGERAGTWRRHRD
# ROS1 (human), sequence (P08922 whole entry, looked up): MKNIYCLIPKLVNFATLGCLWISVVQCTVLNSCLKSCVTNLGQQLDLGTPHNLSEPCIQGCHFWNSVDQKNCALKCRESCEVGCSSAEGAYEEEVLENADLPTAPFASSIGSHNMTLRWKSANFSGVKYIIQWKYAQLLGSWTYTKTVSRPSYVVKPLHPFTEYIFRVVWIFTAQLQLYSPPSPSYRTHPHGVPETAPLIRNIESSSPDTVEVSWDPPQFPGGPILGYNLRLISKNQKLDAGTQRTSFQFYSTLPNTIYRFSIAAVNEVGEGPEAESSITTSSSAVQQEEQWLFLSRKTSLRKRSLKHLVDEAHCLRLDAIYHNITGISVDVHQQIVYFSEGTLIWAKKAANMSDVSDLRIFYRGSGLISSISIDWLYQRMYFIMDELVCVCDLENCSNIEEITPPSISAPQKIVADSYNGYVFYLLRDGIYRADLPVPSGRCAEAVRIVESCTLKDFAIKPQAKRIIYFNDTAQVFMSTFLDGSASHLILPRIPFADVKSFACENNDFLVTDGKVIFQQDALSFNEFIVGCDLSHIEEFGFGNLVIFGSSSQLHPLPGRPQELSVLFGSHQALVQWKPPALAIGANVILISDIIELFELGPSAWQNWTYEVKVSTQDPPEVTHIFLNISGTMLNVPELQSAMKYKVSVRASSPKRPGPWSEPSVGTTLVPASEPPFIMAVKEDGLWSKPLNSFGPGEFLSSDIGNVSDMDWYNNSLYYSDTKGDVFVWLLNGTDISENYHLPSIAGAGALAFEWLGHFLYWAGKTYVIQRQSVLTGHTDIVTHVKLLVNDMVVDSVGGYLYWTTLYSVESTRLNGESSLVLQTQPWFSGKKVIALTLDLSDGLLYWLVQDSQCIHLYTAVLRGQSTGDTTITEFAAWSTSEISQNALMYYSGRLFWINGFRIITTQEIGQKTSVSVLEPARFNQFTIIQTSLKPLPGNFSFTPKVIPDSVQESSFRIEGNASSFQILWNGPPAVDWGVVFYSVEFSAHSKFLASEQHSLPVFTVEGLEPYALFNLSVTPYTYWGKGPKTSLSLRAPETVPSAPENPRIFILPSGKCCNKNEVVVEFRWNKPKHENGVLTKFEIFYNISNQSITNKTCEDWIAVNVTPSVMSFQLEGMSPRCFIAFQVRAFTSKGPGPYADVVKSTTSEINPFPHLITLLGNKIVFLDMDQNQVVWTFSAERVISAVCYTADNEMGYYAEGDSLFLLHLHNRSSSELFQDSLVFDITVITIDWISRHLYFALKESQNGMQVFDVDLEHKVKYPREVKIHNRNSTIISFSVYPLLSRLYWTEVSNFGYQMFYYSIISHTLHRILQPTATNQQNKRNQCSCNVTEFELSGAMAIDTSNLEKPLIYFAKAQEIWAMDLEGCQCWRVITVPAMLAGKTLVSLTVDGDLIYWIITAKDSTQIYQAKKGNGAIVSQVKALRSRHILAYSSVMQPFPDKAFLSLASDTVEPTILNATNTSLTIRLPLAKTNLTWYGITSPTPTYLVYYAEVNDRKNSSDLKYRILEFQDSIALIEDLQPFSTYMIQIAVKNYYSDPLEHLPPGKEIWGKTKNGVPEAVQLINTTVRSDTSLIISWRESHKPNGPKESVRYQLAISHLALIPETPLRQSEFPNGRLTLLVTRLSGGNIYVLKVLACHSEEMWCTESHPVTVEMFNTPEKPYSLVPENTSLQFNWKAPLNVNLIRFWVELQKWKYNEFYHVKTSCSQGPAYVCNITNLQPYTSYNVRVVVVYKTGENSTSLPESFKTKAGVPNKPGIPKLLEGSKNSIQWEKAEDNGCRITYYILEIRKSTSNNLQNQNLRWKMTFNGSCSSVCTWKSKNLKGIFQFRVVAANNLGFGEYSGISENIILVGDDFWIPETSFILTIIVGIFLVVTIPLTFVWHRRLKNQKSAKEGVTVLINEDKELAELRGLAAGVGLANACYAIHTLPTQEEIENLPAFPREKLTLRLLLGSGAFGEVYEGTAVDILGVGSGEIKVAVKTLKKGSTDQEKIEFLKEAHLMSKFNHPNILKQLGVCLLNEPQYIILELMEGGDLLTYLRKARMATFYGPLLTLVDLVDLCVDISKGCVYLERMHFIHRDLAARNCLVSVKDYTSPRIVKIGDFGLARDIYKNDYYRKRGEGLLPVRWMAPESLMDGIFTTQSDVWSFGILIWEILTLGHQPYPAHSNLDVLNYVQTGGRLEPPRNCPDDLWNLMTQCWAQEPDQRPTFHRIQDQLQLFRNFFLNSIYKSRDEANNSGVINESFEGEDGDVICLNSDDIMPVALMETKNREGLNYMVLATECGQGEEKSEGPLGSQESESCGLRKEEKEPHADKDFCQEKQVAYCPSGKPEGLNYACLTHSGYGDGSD
# CSNK1D (human), sequence (P48730 whole entry, looked up): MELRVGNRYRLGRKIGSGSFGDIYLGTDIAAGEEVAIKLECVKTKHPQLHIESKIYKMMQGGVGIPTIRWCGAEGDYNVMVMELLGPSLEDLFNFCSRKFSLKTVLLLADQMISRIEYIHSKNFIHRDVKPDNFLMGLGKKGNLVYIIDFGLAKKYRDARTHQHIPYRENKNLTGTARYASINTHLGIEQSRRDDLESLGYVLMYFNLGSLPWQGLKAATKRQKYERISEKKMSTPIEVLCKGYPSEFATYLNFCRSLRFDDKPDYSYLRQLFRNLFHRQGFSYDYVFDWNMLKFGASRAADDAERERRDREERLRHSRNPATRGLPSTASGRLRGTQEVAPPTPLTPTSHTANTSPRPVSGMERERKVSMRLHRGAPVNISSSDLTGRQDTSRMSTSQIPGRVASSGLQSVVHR
smiles,measurement,setting,value
CCn1cnc2c(Nc3cccc(Cl)c3)nc(N[C@@H]3CCCC[C@@H]3N)nc21,residual activity,CLK3 (human),99.8%
same,residual activity,ITK (human),105%
same,residual activity,EGFR (human),98.1%
same,residual activity,ROS1 (human),90.7%
same,residual activity,CAMKK1 (human),107%
same,residual activity,BRSK2 (human),94%
same,residual activity,BRSK1 (human),92.4%
same,residual activity,ERBB4 (human),103%
same,residual activity,ZAP70 (human),106%
same,residual activity,CSF1R (human),94.2%
same,residual activity,MAP3K7 TAB1 (human),98.9%
same,residual activity,CSNK1E (human),92.1%
same,residual activity,CHEK2 (human),79.9%
same,residual activity,STK4 (human),91.3%
same,residual activity,CDK9 CCNK (human),46.9%
same,residual activity,KIT (human),101%
same,residual activity,MARK3 (human),98.7%
same,residual activity,CDK2 CCNA2 (human),23.6%
same,residual activity,MARK4 (human),95.5%
same,residual activity,ABL1 (human),94%
same,residual activity,MAP3K2 (human),91.7%
same,residual activity,MST1R (human),99.6%
same,residual activity,TGFBR1 (human),95.6%
same,residual activity,CDK4 CCND3 (human),71.5%
same,residual activity,CSK (human),85.4%
same,residual activity,TSSK1B (human),87.4%
same,residual activity,GSG2 (human),90.4%
same,residual activity,STK39 (human),106%
same,residual activity,EPHB3 (human),92.6%
same,residual activity,MAP4K2 (human),87.4%
same,residual activity,PIM3 (human),34.7%
same,residual activity,TTK (human),99.7%
same,residual activity,MAPK1 (human),91.7%
same,residual activity,RAF1 (human),92.8%
same,residual activity,PTK2B (human),85.7%
same,residual activity,TYRO3 (human),98.3%
same,residual activity,PRKD3 (human),90.6%
same,residual activity,CSNK1D (human),97.8%
same,residual activity,ROCK2 (human),90.6%
same,residual activity,DCLK2 (human),93.1%
same,residual activity,ACVRL1 (human),99.9%
Nc1nnc2[nH]c3ccccc3nc1-2,residual activity,CLK3 (human),94.3%
same,residual activity,ITK (human),101%
same,residual activity,EGFR (human),96.4%
same,residual activity,ROS1 (human),106%
same,residual activity,CAMKK1 (human),112%
same,residual activity,BRSK2 (human),96.5%
same,residual activity,BRSK1 (human),91.5%
same,residual activity,ZAP70 (human),102%
same,residual activity,CSF1R (human),95.3%
same,residual activity,MAP3K7 TAB1 (human),100%
same,residual activity,CSNK1E (human),90.2%
same,residual activity,CHEK2 (human),94.4%
same,residual activity,STK4 (human),94.5%
same,residual activity,CDK9 CCNK (human),88.3%
same,residual activity,KIT (human),100%
same,residual activity,MARK3 (human),102%
same,residual activity,CDK2 CCNA2 (human),86.2%
same,residual activity,MARK4 (human),99.8%
same,residual activity,ABL1 (human),91.6%
same,residual activity,MAP3K2 (human),92.6%
same,residual activity,MST1R (human),105%
same,residual activity,TGFBR1 (human),98.1%
same,residual activity,CDK4 CCND3 (human),94.8%
same,residual activity,CSK (human),100%
same,residual activity,TSSK1B (human),95.4%
same,residual activity,GSG2 (human),82.1%
same,residual activity,STK39 (human),116%
same,residual activity,EPHB3 (human),90.3%
same,residual activity,MAP4K2 (human),91.7%
same,residual activity,PIM3 (human),94%
same,residual activity,TTK (human),102%
same,residual activity,MAPK1 (human),100%
same,residual activity,RAF1 (human),94.4%
same,residual activity,PTK2B (human),92%
same,residual activity,TYRO3 (human),101%
same,residual activity,PRKD3 (human),87.3%
same,residual activity,CSNK1D (human),94.2%
same,residual activity,ROCK2 (human),93.3%
same,residual activity,DCLK2 (human),94.6%
same,residual activity,CSNK2A2 (human),94%
same,residual activity,ACVRL1 (human),105%
O=C1NC(=O)C(c2cn(CCCO)c3ncccc23)=C1c1cnccn1,residual activity,CLK3 (human),67.8%
same,residual activity,ITK (human),84.7%
same,residual activity,EGFR (human),95.9%
same,residual activity,ROS1 (human),106%
same,residual activity,CAMKK1 (human),107%
same,residual activity,BRSK2 (human),90.4%
same,residual activity,BRSK1 (human),89.2%
same,residual activity,ERBB4 (human),115%
same,residual activity,ZAP70 (human),87.8%
same,residual activity,CSF1R (human),98.4%
same,residual activity,MAP3K7 TAB1 (human),95.5%
same,residual activity,CSNK1E (human),93.9%
same,residual activity,CHEK2 (human),97.7%
same,residual activity,STK4 (human),83.6%
same,residual activity,CDK9 CCNK (human),89.5%
same,residual activity,KIT (human),93%
same,residual activity,MARK3 (human),87.8%
same,residual activity,CDK2 CCNA2 (human),94.8%
same,residual activity,MARK4 (human),93.9%
same,residual activity,ABL1 (human),98.9%
same,residual activity,MAP3K2 (human),96.9%
same,residual activity,MST1R (human),96.1%
same,residual activity,TGFBR1 (human),98.5%
same,residual activity,CDK4 CCND3 (human),95.9%
same,residual activity,CSK (human),86.9%
same,residual activity,TSSK1B (human),94.9%
same,residual activity,GSG2 (human),91.9%
same,residual activity,STK39 (human),111%
same,residual activity,EPHB3 (human),86.6%
same,residual activity,MAP4K2 (human),67.4%
same,residual activity,PIM3 (human),16.7%
same,residual activity,TTK (human),94.5%
same,residual activity,MAPK1 (human),81.9%
same,residual activity,RAF1 (human),100%
same,residual activity,PTK2B (human),94%
same,residual activity,TYRO3 (human),93.7%
same,residual activity,PRKD3 (human),78.2%
same,residual activity,CSNK1D (human),99.4%
same,residual activity,ROCK2 (human),96%
same,residual activity,DCLK2 (human),90.1%
same,residual activity,ACVRL1 (human),105%
CN([C@@H](Cc1ccc(OS(=O)(=O)c2cccc3cnccc23)cc1)C(=O)N1CCN(c2ccccc2)CC1)S(=O)(=O)c1cccc2cnccc12,residual activity,CLK3 (human),103%
same,residual activity,ITK (human),99.4%
same,residual activity,EGFR (human),89.4%
same,residual activity,ROS1 (human),96.5%
same,residual activity,CAMKK1 (human),108%
same,residual activity,BRSK2 (human),100%
same,residual activity,BRSK1 (human),96.4%
same,residual activity,ERBB4 (human),103%
same,residual activity,ZAP70 (human),99.5%
same,residual activity,CSF1R (human),95.1%
same,residual activity,MAP3K7 TAB1 (human),93.4%
same,residual activity,CSNK1E (human),103%
same,residual activity,CHEK2 (human),101%
same,residual activity,STK4 (human),96.8%
same,residual activity,CDK9 CCNK (human),89.4%
same,residual activity,KIT (human),96.3%
same,residual activity,MARK3 (human),93.7%
same,residual activity,CDK2 CCNA2 (human),99.8%
same,residual activity,MARK4 (human),98.8%
same,residual activity,ABL1 (human),100%
same,residual activity,MAP3K2 (human),98.9%
same,residual activity,MST1R (human),94.4%
same,residual activity,CDK4 CCND3 (human),97.8%
same,residual activity,CSK (human),96.2%
same,residual activity,TSSK1B (human),95.4%
same,residual activity,GSG2 (human),94.7%
same,residual activity,STK39 (human),93.5%
same,residual activity,EPHB3 (human),97%
same,residual activity,MAP4K2 (human),89.5%
same,residual activity,PIM3 (human),113%
same,residual activity,TTK (human),86%
same,residual activity,MAPK1 (human),95.5%
same,residual activity,RAF1 (human),96.9%
same,residual activity,PTK2B (human),103%
same,residual activity,TYRO3 (human),101%
same,residual activity,PRKD3 (human),99.2%
same,residual activity,CSNK1D (human),109%
same,residual activity,ROCK2 (human),105%
same,residual activity,DCLK2 (human),94.1%
same,residual activity,CSNK2A2 (human),121%
same,residual activity,ACVRL1 (human),103%
